Assay results from the NIST ThermoML archive (doi:10.1021/acs.jced.7b00841).
± gives the expanded uncertainty stated by the source.

Conditions: for mass density: Liquid, Vibrating tube method; for specific volume: Gas, isochoric method

FC(F)(F)/C=C/Cl [(E)-1-chloro-3,3,3-trifluoroprop-1-ene]
mass density (283.14 K, 29999 kPa): 1358.6 ± 1 kg/m3 | mass density (283.15 K, 133 kPa): 1297.8 ± 0.8 kg/m3 | mass density (283.15 K, 500 kPa): 1298.7 ± 0.8 kg/m3 | mass density (283.15 K, 5000 kPa): 1309.8 ± 0.9 kg/m3 | mass density (283.15 K, 10000 kPa): 1321 ± 0.9 kg/m3 | mass density (283.15 K, 15000 kPa): 1331.4 ± 0.9 kg/m3 | mass density (283.15 K, 20000 kPa): 1341.1 ± 0.9 kg/m3 | mass density (283.15 K, 35000 kPa): 1366.8 ± 1.1 kg/m3 | mass density (283.16 K, 1000 kPa): 1300 ± 0.8 kg/m3 | mass density (283.16 K, 2500 kPa): 1303.7 ± 0.8 kg/m3 | mass density (283.16 K, 25000 kPa): 1350.1 ± 1 kg/m3 | mass density (293.14 K, 499 kPa): 1275.3 ± 0.8 kg/m3 | mass density (293.14 K, 1000 kPa): 1276.7 ± 0.8 kg/m3 | mass density (293.14 K, 2500 kPa): 1280.9 ± 0.8 kg/m3 | mass density (293.14 K, 5000 kPa): 1287.6 ± 0.8 kg/m3 | mass density (293.14 K, 15000 kPa): 1311.3 ± 0.9 kg/m3 | mass density (293.14 K, 20000 kPa): 1321.7 ± 0.9 kg/m3 | mass density (293.14 K, 35000 kPa): 1349.2 ± 1 kg/m3 | mass density (293.15 K, 151 kPa): 1274.3 ± 0.8 kg/m3 | mass density (293.15 K, 9999 kPa): 1299.9 ± 0.9 kg/m3 | mass density (293.15 K, 25000 kPa): 1331.4 ± 1 kg/m3 | mass density (293.16 K, 30000 kPa): 1340.6 ± 1 kg/m3 | mass density (303.15 K, 250 kPa): 1250.3 ± 0.8 kg/m3 | mass density (303.15 K, 501 kPa): 1251.2 ± 0.8 kg/m3 | mass density (303.15 K, 1001 kPa): 1252.7 ± 0.8 kg/m3 | mass density (303.15 K, 2499 kPa): 1257.4 ± 0.8 kg/m3 | mass density (303.15 K, 5000 kPa): 1264.8 ± 0.8 kg/m3 | mass density (303.15 K, 35000 kPa): 1331.1 ± 1 kg/m3 | mass density (303.16 K, 10001 kPa): 1278.4 ± 0.9 kg/m3 | mass density (303.16 K, 15003 kPa): 1290.7 ± 0.9 kg/m3 | mass density (303.16 K, 20002 kPa): 1301.9 ± 0.9 kg/m3 | mass density (303.16 K, 25001 kPa): 1312.3 ± 0.9 kg/m3 | mass density (303.16 K, 30000 kPa): 1322 ± 1 kg/m3 | specific volume (308.15 K, 167 kPa): 0.11 ± 0.0005 m3/kg | mass density (313.14 K, 35000 kPa): 1313.5 ± 1 kg/m3 | specific volume (313.15 K, 170 kPa): 0.1101 ± 0.0005 m3/kg | mass density (313.15 K, 351 kPa): 1225.4 ± 0.8 kg/m3 | mass density (313.15 K, 501 kPa): 1226 ± 0.8 kg/m3 | mass density (313.15 K, 1000 kPa): 1227.8 ± 0.8 kg/m3 | mass density (313.15 K, 2500 kPa): 1233.1 ± 0.8 kg/m3 | mass density (313.15 K, 5000 kPa): 1241.3 ± 0.8 kg/m3 | mass density (313.15 K, 10000 kPa): 1256.4 ± 0.9 kg/m3 | mass density (313.15 K, 15000 kPa): 1269.9 ± 0.9 kg/m3 | mass density (313.15 K, 19999 kPa): 1282.1 ± 0.9 kg/m3 | mass density (313.15 K, 25000 kPa): 1293.4 ± 0.9 kg/m3 | mass density (313.15 K, 30000 kPa): 1303.8 ± 1 kg/m3 | specific volume (318.15 K, 174 kPa): 0.1101 ± 0.0005 m3/kg | specific volume (323.15 K, 177 kPa): 0.1101 ± 0.0005 m3/kg | specific volume (323.15 K, 274 kPa): 0.0684 ± 0.0005 m3/kg | mass density (323.15 K, 500 kPa): 1199.9 ± 0.8 kg/m3 | mass density (323.15 K, 1000 kPa): 1202 ± 0.8 kg/m3 | mass density (323.15 K, 2500 kPa): 1208 ± 0.8 kg/m3 | mass density (323.15 K, 5000 kPa): 1217.4 ± 0.8 kg/m3 | mass density (323.15 K, 10000 kPa): 1234.3 ± 0.9 kg/m3 | mass density (323.15 K, 15000 kPa): 1249.2 ± 0.9 kg/m3 | mass density (323.15 K, 19999 kPa): 1262.7 ± 0.9 kg/m3 | mass density (323.15 K, 24999 kPa): 1274.9 ± 0.9 kg/m3 | mass density (323.15 K, 30000 kPa): 1286.3 ± 1 kg/m3 | mass density (323.15 K, 35000 kPa): 1296.8 ± 1 kg/m3 | specific volume (328.15 K, 180 kPa): 0.1101 ± 0.0004 m3/kg | specific volume (328.15 K, 280 kPa): 0.0684 ± 0.0004 m3/kg | mass density (333.14 K, 2500 kPa): 1182 ± 0.8 kg/m3 | mass density (333.14 K, 20000 kPa): 1242.9 ± 0.9 kg/m3 | mass density (333.14 K, 25003 kPa): 1256.2 ± 0.9 kg/m3 | mass density (333.14 K, 30002 kPa): 1268.3 ± 0.9 kg/m3 | mass density (333.14 K, 35000 kPa): 1279.5 ± 1 kg/m3 | specific volume (333.15 K, 183 kPa): 0.1101 ± 0.0004 m3/kg | specific volume (333.15 K, 285 kPa): 0.0684 ± 0.0003 m3/kg | specific volume (333.15 K, 372 kPa): 0.0508 ± 0.0002 m3/kg | mass density (333.15 K, 500 kPa): 1172.6 ± 0.8 kg/m3 | mass density (333.15 K, 1000 kPa): 1175.1 ± 0.8 kg/m3 | mass density (333.15 K, 5000 kPa): 1192.7 ± 0.8 kg/m3 | mass density (333.15 K, 10000 kPa): 1211.7 ± 0.8 kg/m3 | mass density (333.15 K, 15001 kPa): 1228.2 ± 0.9 kg/m3 | specific volume (338.15 K, 186 kPa): 0.1102 ± 0.0004 m3/kg | specific volume (338.15 K, 290 kPa): 0.0685 ± 0.0003 m3/kg | specific volume (338.15 K, 380 kPa): 0.0509 ± 0.0002 m3/kg | specific volume (338.15 K, 415 kPa): 0.0461 ± 0.0002 m3/kg | specific volume (343.15 K, 189 kPa): 0.1102 ± 0.0004 m3/kg | specific volume (343.15 K, 296 kPa): 0.0685 ± 0.0003 m3/kg | specific volume (343.15 K, 387 kPa): 0.0509 ± 0.0002 m3/kg | specific volume (343.15 K, 423 kPa): 0.0461 ± 0.0002 m3/kg | specific volume (343.15 K, 458 kPa): 0.0419 ± 0.0002 m3/kg | mass density (343.15 K, 700 kPa): 1145 ± 0.8 kg/m3 | mass density (343.15 K, 1000 kPa): 1146.6 ± 0.8 kg/m3 | mass density (343.15 K, 2500 kPa): 1154.6 ± 0.8 kg/m3 | mass density (343.15 K, 5000 kPa): 1166.8 ± 0.8 kg/m3 | mass density (343.15 K, 10000 kPa): 1188.1 ± 0.8 kg/m3 | mass density (343.15 K, 15000 kPa): 1206.2 ± 0.9 kg/m3 | mass density (343.15 K, 20003 kPa): 1222.1 ± 0.9 kg/m3 | mass density (343.15 K, 25000 kPa): 1236.4 ± 0.9 kg/m3 | mass density (343.15 K, 30001 kPa): 1249.4 ± 0.9 kg/m3 | mass density (343.15 K, 35002 kPa): 1261.5 ± 1 kg/m3 | specific volume (348.15 K, 192 kPa): 0.1102 ± 0.0004 m3/kg | specific volume (348.15 K, 301 kPa): 0.0685 ± 0.0003 m3/kg | specific volume (348.15 K, 394 kPa): 0.0509 ± 0.0002 m3/kg | specific volume (348.15 K, 431 kPa): 0.0462 ± 0.0002 m3/kg | specific volume (348.15 K, 468 kPa): 0.0419 ± 0.0002 m3/kg | specific volume (348.15 K, 550 kPa): 0.0349 ± 0.0002 m3/kg | specific volume (353.15 K, 195 kPa): 0.1102 ± 0.0004 m3/kg | specific volume (353.15 K, 306 kPa): 0.0685 ± 0.0003 m3/kg | specific volume (353.15 K, 401 kPa): 0.0509 ± 0.0002 m3/kg | specific volume (353.15 K, 439 kPa): 0.0462 ± 0.0002 m3/kg | specific volume (353.15 K, 477 kPa): 0.042 ± 0.0002 m3/kg | specific volume (353.15 K, 562 kPa): 0.0349 ± 0.0002 m3/kg | specific volume (353.15 K, 639 kPa): 0.0297 ± 0.0002 m3/kg | mass density (353.15 K, 801 kPa): 1114.4 ± 0.8 kg/m3 | mass density (353.15 K, 1000 kPa): 1116.5 ± 0.8 kg/m3 | mass density (353.15 K, 2500 kPa): 1125.4 ± 0.8 kg/m3 | mass density (353.15 K, 5000 kPa): 1139.8 ± 0.8 kg/m3 | mass density (353.15 K, 10000 kPa): 1163.9 ± 0.8 kg/m3 | mass density (353.15 K, 15000 kPa): 1184.3 ± 0.8 kg/m3 | mass density (353.15 K, 20000 kPa): 1201.7 ± 0.9 kg/m3 | mass density (353.15 K, 25000 kPa): 1217.2 ± 0.9 kg/m3 | mass density (353.15 K, 30000 kPa): 1231.2 ± 0.9 kg/m3 | mass density (353.15 K, 34999 kPa): 1243.9 ± 0.9 kg/m3 | specific volume (358.15 K, 198 kPa): 0.1103 ± 0.0004 m3/kg | specific volume (358.15 K, 311 kPa): 0.0685 ± 0.0003 m3/kg | specific volume (358.15 K, 409 kPa): 0.0509 ± 0.0002 m3/kg | specific volume (358.15 K, 447 kPa): 0.0462 ± 0.0002 m3/kg | specific volume (358.15 K, 486 kPa): 0.042 ± 0.0002 m3/kg | specific volume (358.15 K, 573 kPa): 0.0349 ± 0.0002 m3/kg | specific volume (358.15 K, 654 kPa): 0.0297 ± 0.0002 m3/kg | mass density (363.14 K, 20001 kPa): 1180.8 ± 0.9 kg/m3 | mass density (363.14 K, 35000 kPa): 1226.2 ± 0.9 kg/m3 | specific volume (363.15 K, 202 kPa): 0.1103 ± 0.0004 m3/kg | specific volume (363.15 K, 316 kPa): 0.0685 ± 0.0003 m3/kg | specific volume (363.15 K, 416 kPa): 0.0509 ± 0.0002 m3/kg | specific volume (363.15 K, 455 kPa): 0.0462 ± 0.0002 m3/kg | specific volume (363.15 K, 494 kPa): 0.042 ± 0.0002 m3/kg | specific volume (363.15 K, 584 kPa): 0.0349 ± 0.0002 m3/kg | specific volume (363.15 K, 667 kPa): 0.0297 ± 0.0002 m3/kg | mass density (363.15 K, 1200 kPa): 1085.8 ± 0.8 kg/m3 | mass density (363.15 K, 2500 kPa): 1095.5 ± 0.8 kg/m3 | mass density (363.15 K, 5000 kPa): 1112.1 ± 0.8 kg/m3 | mass density (363.15 K, 10000 kPa): 1139.5 ± 0.8 kg/m3 | mass density (363.15 K, 15001 kPa): 1161.9 ± 0.8 kg/m3 | mass density (363.15 K, 25001 kPa): 1197.5 ± 0.9 kg/m3 | mass density (363.15 K, 30000 kPa): 1212.5 ± 0.9 kg/m3 | specific volume (368.15 K, 205 kPa): 0.1103 ± 0.0004 m3/kg | specific volume (368.15 K, 321 kPa): 0.0685 ± 0.0003 m3/kg | specific volume (368.15 K, 423 kPa): 0.0509 ± 0.0002 m3/kg | specific volume (368.15 K, 463 kPa): 0.0462 ± 0.0002 m3/kg | specific volume (368.15 K, 503 kPa): 0.042 ± 0.0002 m3/kg | specific volume (368.15 K, 594 kPa): 0.0349 ± 0.0002 m3/kg | specific volume (368.15 K, 680 kPa): 0.0298 ± 0.0002 m3/kg | specific volume (373.15 K, 208 kPa): 0.1103 ± 0.0004 m3/kg | specific volume (373.15 K, 326 kPa): 0.0686 ± 0.0003 m3/kg | specific volume (373.15 K, 430 kPa): 0.0509 ± 0.0002 m3/kg | specific volume (373.15 K, 470 kPa): 0.0462 ± 0.0002 m3/kg | specific volume (373.15 K, 512 kPa): 0.042 ± 0.0002 m3/kg | specific volume (373.15 K, 605 kPa): 0.0349 ± 0.0002 m3/kg | specific volume (373.15 K, 693 kPa): 0.0298 ± 0.0002 m3/kg
